Results taken from patent US6444617B1, “Fused-heterocycle dicarboxylic acid diamide derivatives or salts thereof, herbicide and usage thereof” (Nihon Nohyaku Co., Ltd., priority 1998, dated 2002).

Legend:
Format in all cases: in vivo
[1] = system: barnyard grass (Echinochloa crus-galli Beauv.); assay: Test Example 1: herbicidal effect on paddy field weeds before emergence; details: Dosage 5 kg/ha
How it was run: (§1)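 Soil in pots is brought to paddy state and seeded with barnyard grass and bulrush; before germination, the soil receives a predetermined dosage of test compound in solution. After twenty-one days, control rate relative to untreated pots is calculated and graded.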

[2] = system: bulrush (Scirpus juncoides Roxb.); assay: as above; details: Dosage 5 kg/ha
How it was run: as §1

[3] = system: barnyard grass (Echinochloa crus-galli Beauv.); assay: Test Example 2: herbicidal effect on paddy field weeds after emergence; details: Dosage 5 kg/ha; one-leaved stage; 21 days after treatment
How it was run: (§2)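 Weeds were sown in 1/10000 are pots of soil flooded to paddy conditions and grown to the one-leaf stage, then the soil was treated with a solution of compound at a predetermined dosage.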

[4] = system: bulrush (Scirpus juncoides Roxb.); assay: as above; details: Dosage 5 kg/ha; one-leaved stage; 21 days after treatment
How it was run: as §2

[5] = system: monochoria (Monochoria vaginalis Presl); assay: as above; details: Dosage 5 kg/ha; one-leaved stage; 21 days after treatment
How it was run: as §2

[6] = system: barnyard grass (Echinochloa crus-galli Beauv.), Ec; assay: Test Example 3: herbicidal effect on upland weeds before emergence; details: dosage 5 kg/ha
How it was run: (§3)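 Steps: sow upland weed seeds; spray liquid formulation of active ingredient at prescribed concentration prior to emergence; after 14 days, calculate weed-killing rate; judge herbicidal effect.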

[7] = system: bird's eye speedwell (Veronica persica Poir.), Vp; assay: as above; details: dosage 5 kg/ha
How it was run: as §3

[8] = system: cleavers (Galium aparine L.), Ga; assay: as above; details: dosage 5 kg/ha
How it was run: as §3

[9] = system: cocklebur (Xanthium strumarium L.), Xs; assay: as above; details: dosage 5 kg/ha
How it was run: as §3

[10] = system: forxtail grass (Alopecurus aequalis var. amurensis Ohwi), Am; assay: as above; details: foxtail grass, dosage 5 kg/ha
How it was run: as §3

[11] = system: velvetleaf (Abutilon theophtasti L.), At; assay: as above; details: dosage 5 kg/ha
How it was run: as §3

[12] = system: soybean plant (So); assay: Test Example 3: phytotoxicity to upland crop plants, treatment before emergence; details: dosage 5 kg/ha
How it was run: (§4)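 Crop injury to soybean and wheat was judged on a phytotoxicity scale 14 days after a pre-emergence spray of a liquid formulation at a prescribed concentration of compound.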

[13] = system: wheat (Wh); assay: as above; details: dosage 5 kg/ha
How it was run: as §4

[14] = system: barnyard grass (Echinochloa crus-galli Beauv.), Ec; assay: Test Example 4: herbicidal effect on upland weeds after emergence; details: dosage 5 kg/ha; sprayed after emergence; judged 14 days after treatment
How it was run: (§5)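 Post-emergence foliar spray at a prescribed concentration, applied once the sown weeds and soybean reached defined leaf stages in soil vats; herbicidal effect and soybean injury scored after 14 days.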

[15] = system: bird's eye speedwell (Veronica persica Poir.), Vp; assay: as above; details: dosage 5 kg/ha; sprayed after emergence; judged 14 days after treatment
How it was run: as §5

[16] = system: cleavers (Galium aparine L.), Ga; assay: as above; details: dosage 5 kg/ha; sprayed after emergence; judged 14 days after treatment
How it was run: as §5

[17] = system: cocklebur (Xanthium strumarium L.), Xs; assay: as above; details: dosage 5 kg/ha; sprayed after emergence; judged 14 days after treatment
How it was run: as §5

[18] = system: forxtail grass (Alopecurus aequalis var. amurensis Ohwi), Am; assay: as above; details: dosage 5 kg/ha; sprayed after emergence; judged 14 days after treatment
How it was run: as §5

[19] = system: velvetleaf (Abutilon theophtasti L.), At; assay: as above; details: dosage 5 kg/ha; sprayed after emergence; judged 14 days after treatment
How it was run: as §5

[20] = system: soybean plant; assay: Test Example 4: phytotoxicity to upland crop plants, treatment after emergence; details: dosage 5 kg/ha, sprayed after emergence, judged 14 days after treatment
How it was run: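 Post-emergence foliar spray, compound at prescribed concentration, applied at defined leaf stages; weeds plus soybean/wheat grown in soil vats. Read-out: weed-killing rate and crop injury, 14 d post-treatment.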

[21] = system: wheat; assay: as above; details: dosage 5 kg/ha, sprayed after emergence, judged 14 days after treatment
How it was run: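 Scores of weed-killing rate, with crop phytotoxicity, come from inspection 14 days after plants in soil vats, grown to specified leaf stages, are sprayed with a formulation holding the compound at a prescribed concentration.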

## CCNC(=O)c1nc2ccccc2nc1C(=O)Nc1c(CC)ccc(Cl)c1CC [compound 1305]
[1]
  Pre-emergence treatment Barnyard grass (herbicidal effect): 5 (Weed-killing rate is 100%.)
[2]
  Pre-emergence treatment Bulrush (herbicidal effect): 5 (Weed-killing rate is 100%.)
[3]
  Post-emergence treatment Barnyard grass (herbicidal effect): 5 (Weed-killing rate is 100%.)
[4]
  Post-emergence treatment Bulrush (herbicidal effect): 5 (Weed-killing rate is 100%.)
[5]
  Post-emergence treatment Monochoria (herbicidal effect): 5 (Weed-killing rate is 100%.)
[6]
  Herbicidal effect Ec: 5 (Weed-killing rate is 100%.)
[7]
  Herbicidal effect Vp: 5 (Weed-killing rate is 100%.)
[8]
  Herbicidal effect Ga: 5 (Weed-killing rate is 100%.)
[9]
  Herbicidal effect Xs: 5 (Weed-killing rate is 100%.)
[10]
  Herbicidal effect Am: 5 (Weed-killing rate is 100%.)
[11]
  Herbicidal effect At: 5 (Weed-killing rate is 100%.)
[12]
  Phytotoxicity So: 5 (Crop-killing rate is 100%.)
[13]
  Phytotoxicity Wh: 5 (Crop-killing rate is 100%.)
[14]
  Herbicidal effect Ec: 5 (Weed-killing rate is 100%.)
[15]
  Herbicidal effect Vp: 5 (Weed-killing rate is 100%.)
[16]
  Herbicidal effect Ga: 5 (Weed-killing rate is 100%.)
[17]
  Herbicidal effect Xs: 5 (Weed-killing rate is 100%.)
[18]
  Herbicidal effect Am: 5 (Weed-killing rate is 100%.)
[19]
  Herbicidal effect At: 5 (Weed-killing rate is 100%.)
[20]
  Phytotoxicity So: 5 (Crop-killing rate is 100%.)
[21]
  Phytotoxicity Wh: 5 (Crop-killing rate is 100%.)

## CCCNC(=O)c1nc2ccccc2nc1C(=O)Nc1c(CC)ccc(Cl)c1CC [compound 1306]
[1]
  Pre-emergence treatment Barnyard grass (herbicidal effect): 5 (Weed-killing rate is 100%.)
[2]
  Pre-emergence treatment Bulrush (herbicidal effect): 5 (Weed-killing rate is 100%.)
[3]
  Post-emergence treatment Barnyard grass (herbicidal effect): 5 (Weed-killing rate is 100%.)
[4]
  Post-emergence treatment Bulrush (herbicidal effect): 5 (Weed-killing rate is 100%.)
[5]
  Post-emergence treatment Monochoria (herbicidal effect): 5 (Weed-killing rate is 100%.)
[6]
  Herbicidal effect Ec: 5 (Weed-killing rate is 100%.)
[7]
  Herbicidal effect Vp: 5 (Weed-killing rate is 100%.)
[8]
  Herbicidal effect Ga: 5 (Weed-killing rate is 100%.)
[9]
  Herbicidal effect Xs: 5 (Weed-killing rate is 100%.)
[10]
  Herbicidal effect Am: 5 (Weed-killing rate is 100%.)
[11]
  Herbicidal effect At: 5 (Weed-killing rate is 100%.)
[12]
  Phytotoxicity So: 5 (Crop-killing rate is 100%.)
[13]
  Phytotoxicity Wh: 5 (Crop-killing rate is 100%.)
[14]
  Herbicidal effect Ec: 5 (Weed-killing rate is 100%.)
[15]
  Herbicidal effect Vp: 5 (Weed-killing rate is 100%.)
[16]
  Herbicidal effect Ga: 5 (Weed-killing rate is 100%.)
[17]
  Herbicidal effect Xs: 5 (Weed-killing rate is 100%.)
[18]
  Herbicidal effect Am: 5 (Weed-killing rate is 100%.)
[19]
  Herbicidal effect At: 5 (Weed-killing rate is 100%.)
[20]
  Phytotoxicity So: 5 (Crop-killing rate is 100%.)
[21]
  Phytotoxicity Wh: 5 (Crop-killing rate is 100%.)

## CCc1ccc(Cl)c(CC)c1NC(=O)c1nc2ccccc2nc1C(=O)NCC(C)C [compound 1311]
[1]
  Pre-emergence treatment Barnyard grass (herbicidal effect): 5 (Weed-killing rate is 100%.)
[2]
  Pre-emergence treatment Bulrush (herbicidal effect): 5 (Weed-killing rate is 100%.)
[3]
  Post-emergence treatment Barnyard grass (herbicidal effect): 5 (Weed-killing rate is 100%.)
[4]
  Post-emergence treatment Bulrush (herbicidal effect): 5 (Weed-killing rate is 100%.)
[5]
  Post-emergence treatment Monochoria (herbicidal effect): 5 (Weed-killing rate is 100%.)
[6]
  Herbicidal effect Ec: 5 (Weed-killing rate is 100%.)
[7]
  Herbicidal effect Vp: 5 (Weed-killing rate is 100%.)
[8]
  Herbicidal effect Ga: 5 (Weed-killing rate is 100%.)
[9]
  Herbicidal effect Xs: 5 (Weed-killing rate is 100%.)
[10]
  Herbicidal effect Am: 5 (Weed-killing rate is 100%.)
[11]
  Herbicidal effect At: 5 (Weed-killing rate is 100%.)
[12]
  Phytotoxicity So: 5 (Crop-killing rate is 100%.)
[13]
  Phytotoxicity Wh: 5 (Crop-killing rate is 100%.)
[14]
  Herbicidal effect Ec: 5 (Weed-killing rate is 100%.)
[15]
  Herbicidal effect Vp: 5 (Weed-killing rate is 100%.)
[16]
  Herbicidal effect Ga: 5 (Weed-killing rate is 100%.)
[17]
  Herbicidal effect Xs: 5 (Weed-killing rate is 100%.)
[18]
  Herbicidal effect Am: 5 (Weed-killing rate is 100%.)
[19]
  Herbicidal effect At: 5 (Weed-killing rate is 100%.)
[20]
  Phytotoxicity So: 5 (Crop-killing rate is 100%.)
[21]
  Phytotoxicity Wh: 5 (Crop-killing rate is 100%.)

## CCc1ccc(Cl)c(CC)c1NC(=O)c1nc2ccccc2nc1C(=O)NCC(C)(C)C [compound 1314]
[1]
  Pre-emergence treatment Barnyard grass (herbicidal effect): 5 (Weed-killing rate is 100%.)
[2]
  Pre-emergence treatment Bulrush (herbicidal effect): 5 (Weed-killing rate is 100%.)
[3]
  Post-emergence treatment Barnyard grass (herbicidal effect): 4 (Weed-killing rate is 90-99%.)
[4]
  Post-emergence treatment Bulrush (herbicidal effect): 4 (Weed-killing rate is 90-99%.)
[5]
  Post-emergence treatment Monochoria (herbicidal effect): 5 (Weed-killing rate is 100%.)
[6]
  Herbicidal effect Ec: 5 (Weed-killing rate is 100%.)
[7]
  Herbicidal effect Vp: 5 (Weed-killing rate is 100%.)
[8]
  Herbicidal effect Ga: 4 (Weed-killing rate is 90-99%.)
[9]
  Herbicidal effect Xs: 4 (Weed-killing rate is 90-99%.)
[10]
  Herbicidal effect Am: 5 (Weed-killing rate is 100%.)
[11]
  Herbicidal effect At: 5 (Weed-killing rate is 100%.)
[12]
  Phytotoxicity So: 3 (Crop-killing rate is 70-89%.)
[13]
  Phytotoxicity Wh: 4 (Crop-killing rate is 90-99%.)
[14]
  Herbicidal effect Ec: 5 (Weed-killing rate is 100%.)
[15]
  Herbicidal effect Vp: 5 (Weed-killing rate is 100%.)
[16]
  Herbicidal effect Ga: 4 (Weed-killing rate is 90-99%.)
[17]
  Herbicidal effect Xs: 4 (Weed-killing rate is 90-99%.)
[18]
  Herbicidal effect Am: 5 (Weed-killing rate is 100%.)
[19]
  Herbicidal effect At: 5 (Weed-killing rate is 100%.)
[20]
  Phytotoxicity So: 4 (Crop-killing rate is 90-99%.)
[21]
  Phytotoxicity Wh: 4 (Crop-killing rate is 90-99%.)
